Measured values: patent US20260263443A1, “COMPOUND FOR TREATMENT OF FEMALE SEXUAL DYSFUNCTION” (Initiator Pharma A/S, priority 2022, published 2026)
Counter-ions that a name gives are not always drawn. Like-named read-outs stand apart in the source and are kept apart here.

Legend:
[1] = tested on: Female Sprague Dawley rats; assay: Sexual (paracopulatory) behaviour of estrus-synchronized female rats paired with male rats; assay type: in vivo, rat
Description: Animals: Female Sprague Dawley rats (12-15 weeks old) were housed in the animal facility in Universal Euro Ill type long width cages with standard wood bedding and space for 2 rats with a clean environment, and a comfortable temperature (22-23° C.) with 12:12 h light-dark cycle starting at 11 am and they had free access to food and tap water.
Synchronization of the sexual cycle in estrus of female rats: Female Sprague Dawley rats with an average weight of 250 g were synchronized in the estrus phase of the sexual cycle by injecting with 250 μg prostaglandin F2α (PGF2α) subcutaneously at day 0 and day 3.
To investigate the sexual behavior, the synchronized female rats were paired with trained male rats and behaviour recorded by two cameras. The videos were quantified by a trained operator blinded for the treatments.
Data analysis and statistics: Statistical differences between vehicle, apomorphine and two different doses of IP2015 were analysed using one-way analysis of variance (ANOVA) followed by Tukey post-test. The assumptions of the models were investigated by inspecting Q-Q plots and data were logarithmically transformed when necessary in order to generate a Gaussian-distributed data set. In case where the data were skewed, the Brown-Forsythe test was applied. The ROUT method (Q=1%) was used to exclude data from the analysis. A P<0.05 was considered statistically significant. Post-tests were only done if F was significant and there was no variance inhomogeneity. All statistical analyses were performed using GraphPad Prism 9.5 software (GraphPad Software, CA, USA).

[2] = target: T1, noradrenaline (NA) reuptake in synaptosomes (Rattus norvegicus, UniProt Q63380); conditions: reported in U.S. Pat. No. 9,133,184 B1; cited from earlier work
T1 construct: in synaptosomes as described in WO 97/16451; from tissue

[3] = target: T2, dopamine (DA) reuptake in synaptosomes (Rattus norvegicus, UniProt P23977); assay: Inhibition of dopamine (DA) reuptake in synaptosomes; assay type: biochemical; conditions: 3H-DA, read-out: DA-uptake IC50
T2 construct: in synaptosomes as described in WO 97/16451; from tissue
Description: (§1) Compounds were tested for their ability to inhibit the reuptake of the monoamine neurotransmitters dopamine (DA), noradrenaline (NA), and serotonin (5-HT) in synaptosomes as described in WO 97/16451 (NeuroSearch A/S).
(§2) The test values are given as IC50 (the concentration (μM) of the test substance which inhibits the specific binding of ^3H-DA, ^3H-NA, or ^3H-5-HT by 50%).

[4] = tested on: female Sprague Daley rats; assay: Laser Doppler measurement of clitoral blood flow in anaesthetized female rats; assay type: in vivo, rat
Description: (§3) Animals: The experimental setup was run in two different sets of measurement procedures to avoid a variation given by each other. The first set of experiments was run in control female rats, and the second set was run in a depressed model called Flint Sensitive Line (FSL), which shares molecular similarities to major depressive patients.
(§4) Anesthesia and general surgical procedure: The rats were injected intraperitoneally with pentobarbital 50 mg/Kg. After 10 min in dark conditions a pinch of the interdigital area confirmed unresponsive of reflexes and the animal was prepared on a table, where legs were semi-extended by tape to fix the animal. The areas of interest (abdomen-inguinal and neck) were shaved and clean-disinfected with water and ethanol. After each study was completed, the animal was sacrificed by an overdose of pentobarbital, and the Atlanto-occipital joint was severed to guarantee a painless procedure for the animal.
Measurements of clitoral blood flow and genital temperature: A suture Nylon 4-0 with a needle was used to extend the urethra opening and expose the mucosa. […] A calibrated laser Doppler flow probe (VP1T, Moor instruments-UK) was used to measure on the front-side of the clitoris, which was connected to the laser Doppler flow monitor; MOORVMS-LDF2 (Moor instruments-UK). A laser Doppler probe was positioned and fixed to a base and a crocodile clamp in order to avoid any movement. The tip of the calibrated probe was immersed in a water-based gel in the exposed area of the urethra-clitoris (FIG. 1B).
A calibrated laser Doppler flow probe (VP1T, Moor instruments-UK) was used to measure on the front-side of the clitoris, which was connected to the laser Doppler flow monitor; MOORVMS-LDF2 (Moor instruments-UK). […] The infusion protocol was performed in sets of 1 min infusion +4 min of further recording of blood flow changes recorded by the system. Electrical field stimulation of the cavernous nerve to the clitoris was utilized as a positive control as described below.
Measurements of clitoral blood flow following electrical stimulation of the cavernous nerve to the clitoris: Through a lower abdominal incision, the cavernous nerve to clitoris was isolated, and electrical stimulation was performed with a slender bipolar platinum electrode, which was connected to a S48 stimulator (Grass Instrument Co., Boston, MA, U.S.A.). To investigate whether stimulation of the nerve leads to hemodynamic changes in the clitorial tissue, the nerve was stimulated as previously described for male rats, with parameters eliciting the maximum amplitude of response (square wave pulses of 6 Volts, 10 Hz, 1 ms for 30 s), and flow was measured with laser Doppler. Clitoral blood flow was measured via laser Doppler as aforementioned.

[5] = target: T1, noradrenaline (NA) reuptake in synaptosomes; assay: Inhibition of noradrenaline (NA) reuptake in synaptosomes; assay type: biochemical; conditions: 3H-NA, read-out: NA-uptake IC50
Description: as §1, §2

[6] = target: T2, dopamine (DA) reuptake in synaptosomes; conditions: reported in U.S. Pat. No. 9,133,184 B1; cited from earlier work
[7] = tested on: female Sprague Daley rats; assay: Mean arterial pressure and heart rate in anaesthetized female rats; assay type: in vivo, rat; conditions: infusion 0.3 to 10 mg/kg, versus vehicle
Description: Measurements mean arterial pressure and heart rate: The anaesthetized rats breathed spontaneously and body temperature was monitored continuously, and maintained at 37.5° C. by placing them on a heating blanket. A heparinized (100 IE mL-1) polyethylene (PE) catheter (PE-50) connected to a pressure transducer (Disposable BP Transducer, AD Instruments, UK) was introduced into the carotid artery to measure MAP. Following a stabilization period of 10-20 min, continuous direct measurements of mean arterial pressure (MAP) and heart rate (HR) were obtained, registered, and analysed on a computerized data acquisition system (PowerLab, ADInstruments).

[8] = tested on: depressed FSL rats; assay: Thermographic measurement of genital temperature in female rats; assay type: in vivo, rat
Description: as §3, §4
A thermographic FLIR camera (E96, InfraTec, Germany, FIG. 1) was positioned at 50 cm distance from the area of interest (FIG. 1C). Three areas (thorax, vagina, and urethral-clitoris) of interest were recorded by digital markers positioned using the Research Studio-FLIR, and data were extracted and imported to Excel.

[9] = infusion 0.3 to 10 mg/kg via jugular vein
[10] = infusion 0.3 to 10 mg/kg via jugular vein, laser Doppler
[11] = depressed FSL rats, infusion of increasing doses 0.3-10 mg/Kg, thermography 4x zoom

T2 sequence (P23977 whole entry): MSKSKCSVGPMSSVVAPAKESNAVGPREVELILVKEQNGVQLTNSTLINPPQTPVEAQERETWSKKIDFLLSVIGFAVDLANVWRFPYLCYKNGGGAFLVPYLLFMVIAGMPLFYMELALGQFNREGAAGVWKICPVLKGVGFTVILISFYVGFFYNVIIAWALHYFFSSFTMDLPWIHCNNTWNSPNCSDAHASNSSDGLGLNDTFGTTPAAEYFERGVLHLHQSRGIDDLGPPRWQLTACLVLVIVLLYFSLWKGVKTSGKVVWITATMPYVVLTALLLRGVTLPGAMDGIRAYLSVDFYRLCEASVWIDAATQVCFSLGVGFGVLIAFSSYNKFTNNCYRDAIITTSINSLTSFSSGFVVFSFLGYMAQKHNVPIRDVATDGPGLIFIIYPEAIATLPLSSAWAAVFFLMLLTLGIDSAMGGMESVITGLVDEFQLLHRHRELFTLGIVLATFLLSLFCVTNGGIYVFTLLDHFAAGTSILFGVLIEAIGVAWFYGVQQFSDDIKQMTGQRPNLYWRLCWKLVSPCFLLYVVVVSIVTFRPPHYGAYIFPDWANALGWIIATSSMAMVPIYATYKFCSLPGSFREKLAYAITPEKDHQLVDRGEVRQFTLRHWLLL
T1 sequence (Q63380 1-617): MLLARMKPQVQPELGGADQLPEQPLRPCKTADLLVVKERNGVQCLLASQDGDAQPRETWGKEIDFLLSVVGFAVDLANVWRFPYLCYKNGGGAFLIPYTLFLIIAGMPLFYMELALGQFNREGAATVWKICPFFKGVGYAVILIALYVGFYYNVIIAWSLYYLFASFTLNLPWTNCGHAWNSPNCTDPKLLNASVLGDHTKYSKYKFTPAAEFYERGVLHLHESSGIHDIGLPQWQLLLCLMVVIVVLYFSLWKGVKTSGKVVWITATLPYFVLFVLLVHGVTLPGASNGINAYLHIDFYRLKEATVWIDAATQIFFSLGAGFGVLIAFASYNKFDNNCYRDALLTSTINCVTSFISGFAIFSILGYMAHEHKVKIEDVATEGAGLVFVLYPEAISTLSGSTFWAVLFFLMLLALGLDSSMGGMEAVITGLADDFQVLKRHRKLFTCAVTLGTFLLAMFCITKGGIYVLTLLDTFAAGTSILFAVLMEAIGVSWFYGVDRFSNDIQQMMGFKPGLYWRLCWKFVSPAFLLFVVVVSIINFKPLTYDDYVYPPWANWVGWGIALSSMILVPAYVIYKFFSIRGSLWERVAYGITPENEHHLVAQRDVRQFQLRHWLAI

| Structure (SMILES) | paracopulatory parameters (hops, ear wiggling, darts) ([1]; 0.25 mg/kg) | IC50 [2] [nM] | number of hops compared to apomorphine ([1]; 10 mg/kg) | darts compared with vehicle and apomorphine ([1]; 1 and 10 mg/kg) | ear wiggling ([1]; single injection, 1 and 10 mg/kg) | IC50 [3] [nM] | average clitoral blood flow compared to vehicle [4, 9] | peak clitoral blood flow compared to vehicle [4, 9] | duration of blood flow in the clitoral area [4, 10] | frequency of blood flow in the clitoral area [4, 10] | magnitude of blood flow in the clitoral area [4, 10] | Peak clitoral blood flow following infusion ([4]; laser Doppler trace, electrical stimulation of cavernous nerve gave 4.31 V) [V] | IC50 [5] [nM] | IC50 [6] [nM] | heart rate (HR) [7] | mean arterial pressure (MAP) [7] | temperature in the clitoral area [8, 11] | temperature in the vagina [8, 11] | core temperature (anal thermometer) ([8]; during infusion of IP2015) |
| --- | --- | --- | --- | --- | --- | --- | --- | --- | --- | --- | --- | --- | --- | --- | --- | --- | --- | --- | --- |
| CN1CCc2cccc3c2[C@H]1Cc1ccc(O)c(O)c1-3 [apomorphine, reference compound] | did not change |  |  |  |  |  |  |  |  |  |  |  |  |  |  |  |  |  |  |
| COc1cc2ccc(O[C@@H]3C[C@H]4CC[C@@H](C3)N4)cc2oc1=O [IP2015, exo-7-[(8-azabicyclo[3.2.1]octan-3-yl)oxy]-3-methoxy-chromen-2-one hydrochloride] |  | 3.8 | increased | dose-dependently increased | did not change | 70 | significantly increased | significantly increased | increased | increased | increased | 4.49 | 3.8 | 70 | significantly increased | comparable to vehicle | dose-dependent increases | dose-dependent increases | unchanged |
